System: 253994-281-T-J1-PDC KRAS-mutant spheroids with HUVEC/MSC, viability
Assay: Anticancer human tumor 253994-281-T-J1-PDC patient-derived colorectal carcinoma cell line growth inhibition [KRAS2]
Conditions: for IC50: curve of first compound; for viability, T/C: stronger effect = lower value
In short: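 KRAS-mutant tumor cells were grown as spheroids with HUVEC endothelial cells and human MSCs as stroma. Targeted agents were tested alone and with KRAS pathway inhibitors. Doses started at or near clinical Cmax, or 10 microM, descending half-log.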

[1] = second compound 0.0316 µM, first compound 0.0316 µM
[2] = second compound 0.0316 µM, first compound 0.1 µM
[3] = second compound 0.0316 µM, first compound 0.316 µM
[4] = second compound 0.0316 µM, first compound 1 µM
[5] = second compound 0.0316 µM, first compound 3.16 µM
[6] = second compound 0.0316 µM, first compound 10 µM
[7] = second compound 0.1 µM, first compound 0.0316 µM
[8] = second compound 0.1 µM, first compound 0.1 µM
[9] = second compound 0.1 µM, first compound 0.316 µM
[10] = second compound 0.1 µM, first compound 1 µM
[11] = second compound 0.1 µM, first compound 3.16 µM
[12] = second compound 0.1 µM, first compound 10 µM
[13] = second compound 0.316 µM, first compound 0.0316 µM
[14] = second compound 0.316 µM, first compound 0.1 µM
[15] = second compound 0.316 µM, first compound 0.316 µM
[16] = second compound 0.316 µM, first compound 1 µM
[17] = second compound 0.316 µM, first compound 3.16 µM
[18] = second compound 0.316 µM, first compound 10 µM
[19] = second compound 1 µM, first compound 0.0316 µM
[20] = second compound 1 µM, first compound 0.1 µM
[21] = second compound 1 µM, first compound 0.316 µM
[22] = second compound 1 µM, first compound 1 µM
[23] = second compound 1 µM, first compound 3.16 µM
[24] = second compound 1 µM, first compound 10 µM
[25] = second compound 3.16 µM, first compound 0.0316 µM
[26] = second compound 3.16 µM, first compound 0.1 µM
[27] = second compound 3.16 µM, first compound 0.316 µM
[28] = second compound 3.16 µM, first compound 1 µM
[29] = second compound 3.16 µM, first compound 3.16 µM
[30] = second compound 3.16 µM, first compound 10 µM
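Note: spheroids exposed to agents for seven days before readout.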
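Throughout, for viability, T/C: percent of DMSO vehicle control viability.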

## CC1OCC2(CCN(c3cnc(Sc4ccnc(N)c4Cl)c(N)n3)CC2)C1N (stereo not given) + C=CC(=O)N1CCN(c2nc(OCC3CCCN3C)nc3c2CCN(c2cccc4cccc(C)c24)C3)CC1CC#N
Second compound 0.0316 µM
  IC50: 8570 nM
Second compound 0.1 µM
  IC50: > 10000 nM
Second compound 0.316 µM
  IC50: 6830 nM
Second compound 1 µM
  IC50: 5050 nM
Second compound 3.16 µM
  IC50: 82.4 nM
[1]
  viability, T/C: 112%
[2]
  viability, T/C: 91.7%
[3]
  viability, T/C: 87.5%
[4]
  viability, T/C: 81.4%
[5]
  viability, T/C: 65.4%
[6]
  viability, T/C: 45.3%
[7]
  viability, T/C: 87.4%
[8]
  viability, T/C: 100%
[9]
  viability, T/C: 76.3%
[10]
  viability, T/C: 78.5%
[11]
  viability, T/C: 66.1%
[12]
  viability, T/C: 50.4%
[13]
  viability, T/C: 92.3%
[14]
  viability, T/C: 100%
[15]
  viability, T/C: 84.3%
[16]
  viability, T/C: 72.6%
[17]
  viability, T/C: 60.9%
[18]
  viability, T/C: 44.9%
[19]
  viability, T/C: 79.3%
[20]
  viability, T/C: 82.3%
[21]
  viability, T/C: 76.7%
[22]
  viability, T/C: 67.4%
[23]
  viability, T/C: 56.5%
[24]
  viability, T/C: 41.4%
[25]
  viability, T/C: 57.2%
[26]
  viability, T/C: 48.5%
[27]
  viability, T/C: 39.8%
[28]
  viability, T/C: 27%
[29]
  viability, T/C: 20.6%
[30]
  viability, T/C: 9.67%

## Cn1nccc1Nc1nccc(-c2cc3c(s2)C(C)(C)N(CCN2CCOCC2)C3=O)n1 + C=CC(=O)N1CCN(c2nc(OCC3CCCN3C)nc3c2CCN(c2cccc4cccc(C)c24)C3)CC1CC#N
Second compound 0.0316 µM
  IC50: 4450 nM
Second compound 0.1 µM
  IC50: 2630 nM
Second compound 0.316 µM
  IC50: 2150 nM
Second compound 1 µM
  IC50: 3040 nM
Second compound 3.16 µM
  IC50: 181 nM
[1]
  viability, T/C: 92.7%
[2]
  viability, T/C: 99%
[3]
  viability, T/C: 89.1%
[4]
  viability, T/C: 72.4%
[5]
  viability, T/C: 62.2%
[6]
  viability, T/C: 28%
[7]
  viability, T/C: 92.3%
[8]
  viability, T/C: 96.3%
[9]
  viability, T/C: 88.7%
[10]
  viability, T/C: 73.5%
[11]
  viability, T/C: 45.6%
[12]
  viability, T/C: 29.4%
[13]
  viability, T/C: 95.5%
[14]
  viability, T/C: 103%
[15]
  viability, T/C: 96.7%
[16]
  viability, T/C: 67.4%
[17]
  viability, T/C: 43.1%
[18]
  viability, T/C: 30.4%
[19]
  viability, T/C: 107%
[20]
  viability, T/C: 98.9%
[21]
  viability, T/C: 73.9%
[22]
  viability, T/C: 80.3%
[23]
  viability, T/C: 44.6%
[24]
  viability, T/C: 27.4%
[25]
  viability, T/C: 64%
[26]
  viability, T/C: 53.6%
[27]
  viability, T/C: 45.2%
[28]
  viability, T/C: 20.8%
[29]
  viability, T/C: 4.92%
[30]
  viability, T/C: 1.02%

## Cn1ncnc1[C@H]1c2n[nH]c(=O)c3cc(F)cc(c23)N[C@@H]1c1ccc(F)cc1 + COc1cc2nc(C)nc(NC(C)c3cc(N)cc(C(F)(F)F)c3)c2cc1OC1CCOC1
Second compound 0.1 µM
  IC50: > 100 nM
Second compound 0.316 µM
  IC50: > 100 nM
Second compound 1 µM
  IC50: > 100 nM
Second compound 3.16 µM
  IC50: > 100 nM
Second compound 10 µM
  IC50: > 100 nM
Second compound 0.1 µM, first compound 0.000316 µM
  viability, T/C: 92.5%
Second compound 0.1 µM, first compound 0.001 µM
  viability, T/C: 95.7%
Second compound 0.1 µM, first compound 0.00316 µM
  viability, T/C: 79%
Second compound 0.1 µM, first compound 0.01 µM
  viability, T/C: 90.8%
[7]
  viability, T/C: 92.5%
[8]
  viability, T/C: 78.8%
Second compound 0.316 µM, first compound 0.000316 µM
  viability, T/C: 80%
Second compound 0.316 µM, first compound 0.001 µM
  viability, T/C: 84.5%
Second compound 0.316 µM, first compound 0.00316 µM
  viability, T/C: 86.1%
Second compound 0.316 µM, first compound 0.01 µM
  viability, T/C: 80.4%
[13]
  viability, T/C: 91.9%
[14]
  viability, T/C: 78.1%
Second compound 1 µM, first compound 0.000316 µM
  viability, T/C: 88.5%
Second compound 1 µM, first compound 0.001 µM
  viability, T/C: 92.2%
Second compound 1 µM, first compound 0.00316 µM
  viability, T/C: 86.6%
Second compound 1 µM, first compound 0.01 µM
  viability, T/C: 89.1%
[19]
  viability, T/C: 87.1%
[20]
  viability, T/C: 85.3%
Second compound 3.16 µM, first compound 0.000316 µM
  viability, T/C: 87.5%
Second compound 3.16 µM, first compound 0.001 µM
  viability, T/C: 86.5%
Second compound 3.16 µM, first compound 0.00316 µM
  viability, T/C: 91.7%
Second compound 3.16 µM, first compound 0.01 µM
  viability, T/C: 89.7%
[25]
  viability, T/C: 77.2%
[26]
  viability, T/C: 85.5%
Second compound 10 µM, first compound 0.000316 µM
  viability, T/C: 80.9%
Second compound 10 µM, first compound 0.001 µM
  viability, T/C: 84.7%
Second compound 10 µM, first compound 0.00316 µM
  viability, T/C: 72.6%
Second compound 10 µM, first compound 0.01 µM
  viability, T/C: 77.7%
Second compound 10 µM, first compound 0.0316 µM
  viability, T/C: 83.7%
Second compound 10 µM, first compound 0.1 µM
  viability, T/C: 68.3%
